From US20230092495A1, “SOLID FORMS OF TEZACAFTOR AND PROCESSES FOR THE PREPARATION THEREOF” (QUÍMICA SINTÉTICA, S.A., priority 2020, published 2023)

Key:
[1] = Stability of amorphous tezacaftor, polymorphic stability by XRPD; assay type: physicochemical
From the text: (§1) Unless otherwise indicated, in the context of the present invention a range of values indicated for a certain parameter, for example the weight of a component in a mixture, includes the upper and the lower limits of the range, e.g. if the content in weight, or in volume, of a component A in a mixture is indicated as “X to Y”, the content of A can be X, Y or any of the intermediate values. By “polymorphically stable” it is meant that the crystalline form B and the amorphous form of the present invention, when stored (I) at 70° C. under reduced pressure for at least 1 hour (preferably for 5 hours, more preferably for 10 hours, even more preferably for 12 hours), (II) at 60° C. for at least 1 day (preferably for 5 days, more preferably for 10 days, even more preferably for 15 days), (III) at 40° C. and 75% RH for at least 1 day (preferably for 5 days, more preferably for 10 days, even more preferably for 15 days), and/or (IV) at 25-30° C. and 80% RH for at least 1 day (preferably for 5 days, more preferably for 10 days, even more preferably for 15 days), show no signs of transformation into a different crystalline tezacaftor (e.g. Form A) as evaluated by the absence of peaks in an X-ray powder diffractogram (XRPD).
(§2) XRPD analyses were performed at 20-30° C. by means of a theta/theta vertical scan Bruker AXS D8 Advance high-performance diffractometer. The instrument was equipped with a Cu-Kα X-ray tube operating at 40 kV/40 mA and generating radiation having λ=1.5418 Å. The detector was a linear Lynxeye XE-T position sensitive set at 250 mm from the sample. Powder samples were deposited in the 20 mm×0.5 mm hollow of the sample holder, consisting of a quartz monocrystal zero background plate. A mild grinding of the sample in an agate mortar may be needed to obtain a suitable fine powder. Diffraction data were collected applying the following conditions: angular range 2-40° 2-theta, 0.02°/step scan and 1 second acquisition time. The instrument calibration was verified by means of a NIST SRM 1976b. Data acquisition was performed by means of Bruker Diffraction Measurement Center software. Data elaboration was performed by means of Crystal Impact Match!.
The amorphous tezacaftor, prepared as described in Examples 3 to 5, was maintained at 70° C. under a reduced pressure for 12 hours.
The amorphous tezacaftor, prepared as described in Examples 3 to 5, was maintained, in a closed vial, at 60° C. for 15 days.
The amorphous tezacaftor, prepared as described in Examples 3 to 5, was maintained, in an open vial, at 40° C. and 75% RH for 15 days.
The amorphous tezacaftor, prepared as described in Examples 3 to 5, was maintained, in an open vial, at 25-30° C. and 80% RH for 15 days.

[2] = Stressed stability of crystalline tezacaftor form B, polymorphic stability by XRPD; assay type: physicochemical; details: 4 weeks
From the text: as §1
as §2, with “Data acquisition was performed by means of Bruker Diffraction Measurement Center software. Data elaboration was performed by means of Crystal Impact Match!.” left out

| SMILES | XRPD analysis after storage (polymorphic stability) ([1]; 25-30° C. and 80% RH, open vial, 15 days) | XRPD analysis after storage (polymorphic stability) ([1]; 40° C. and 75% RH, open vial, 15 days) | XRPD analysis after storage (polymorphic stability) ([1]; 60° C., closed vial, 15 days) | XRPD analysis after storage (polymorphic stability) ([1]; 70° C. under reduced pressure, 12 hours) | XRPD analysis after storage (polymorphic stability) ([2]; 20-25° C., 80% relative humidity, open vial) | XRPD analysis after storage (polymorphic stability) ([2]; 40° C. and 75% RH, open vial) | XRPD analysis after storage (polymorphic stability) ([2]; 60° C., closed vial) |
| --- | --- | --- | --- | --- | --- | --- | --- |
| CC(C)(CO)c1cc2cc(NC(=O)C3(c4ccc5c(c4)OC(F)(F)O5)CC3)c(F)cc2n1C[C@@H](O)CO [amorphous tezacaftor, (R)-1-(2,2-difluorobenzo[d][1,3]dioxol-5-yl)-N-(1-(2,3-dihydroxypropyl)-6-fluoro-2-(1-hydroxy-2-methylpropan-2-yl)-1H-indol-5-yl)cyclopropane-1-carboxamide] | XRPD spectrum corresponding to the one obtained in example 3 | XRPD spectrum corresponding to the one obtained in example 3 | XRPD spectrum corresponding to the one obtained in example 3 | XRPD spectrum corresponding to the one obtained in example 3 |  |  |  |
| CC(C)(CO)c1cc2cc(NC(=O)C3(c4ccc5c(c4)OC(F)(F)O5)CC3)c(F)cc2n1C[C@@H](O)CO [crystalline tezacaftor, (R)-1-(2,2-difluorobenzo[d][1,3]dioxol-5-yl)-N-(1-(2,3-dihydroxypropyl)-6-fluoro-2-(1-hydroxy-2-methylpropan-2-yl)-1H-indol-5-yl)cyclopropane-1-carboxamide] |  |  |  |  | XRPD diffractogram corresponding to the one obtained in example 1 | XRPD diffractogram corresponding to that obtained in example 1 | XRPD diffractogram corresponded to that obtained from the sample of example 1 |
